Series [1] is described as follows: stability of the azide in acidified aqueous MeOD (19F NMR, FTIR). Format: physicochemical. As for the experimental part: The azide compounds according to the present invention are stable even in strongly acidic aqueous environment. […] Its ^19F NMR spectrum is acquired within 5 min and again after 21 days. […] This was further confirmed through FTIR analysis of the solid recovered by evaporation after the ^19F NMR experiment. No change in the azide stretching intensity (νasN3, 2129 cm^−1) normalized against benzene (νring, 1546 cm^−1) was observed.

A further series can be described thus: solubility in solvents. Type of series: physicochemical.

As to “N,N-dimethyl-N,N-dipropylene bis(4-azido-2,3,5,6-tetrafluorobenzamide) ammonium iodide”, the “change of 19F NMR spectrum” value in series [1] (16 mg mL^-1 in acidified deuterated MeOD containing 2.4 M HCl and 6.5 M H2O, within 5 min vs after 21 days) was “No observable change”. In addition, the “change in azide stretching intensity (FTIR, 2129 cm^-1) normalized against benzene ring band” value in series [1] (solid recovered by evaporation after the 19F NMR experiment (21 days in acidic aqueous MeOD)) is listed as “No change”. Regarding `C[N+](C)(CCCNC(=O)c1c(F)c(F)c(N=[N+]=[N-])c(F)c1F)CCCNC(=O)c1c(F)c(F)c(N=[N+]=[N-])c(F)c1F` [V], the “solubility in H2O” value in the series “solubility in solvents” was “soluble in H2O”.

These data come from patent publication US8105745B2, “Radiation crosslinker” (National University of Singapore, priority 2005, dated 2012).
